In assay [1] the test system is A549. The experiment in a line: Cytotoxicity against human A549 cells assessed as cell growth inhibition measured after 48 hrs by MTT assay. The format is functional, cell-based. Particulars: A549, 48 h. (In general: Tetrazolium assays rely on reduction of a dye to a coloured formazan, in cell work by metabolically active cells.)
Assay [2] deals with HepG2. Kind of assay: Cytotoxicity against human HepG2 cells assessed as cell growth inhibition measured after 48 hrs by MTT assay. The format is functional, cell-based. Particulars: HepG2, 48 h.
Another assay concerns HeLa. The experiment in a line: Cytotoxicity against human HeLa cells assessed as cell growth inhibition. Type of assay: functional, cell-based.
Assay [3] concerns HepG2. The experiment in a line: Cytotoxicity against human HepG2 cells assessed as cell growth inhibition. The format is functional, cell-based.
Assay [4] has as its system A549. The experiment in a line: Cytotoxicity against human A549 cells assessed as cell growth inhibition. Type of assay: functional, cell-based.
A further assay concerns MDA-MB-231. Kind of assay: Cytotoxicity against human MDA-MB-231 cells assessed as cell growth inhibition. Type of assay: functional, cell-based.
Assay [5] deals with MGC-803. The experiment in a line: Antitumor activity against human MGC-803 cells xenografted in mouse assessed as inhibition of tumor growth at 50 mg/kg, po administered relative to control. Type of assay: functional. Particulars: read-out: TGI. On the technique in general: In xenograft studies the graft and the host belong to different species.
Assay [6] relates to MGC-803. Kind of assay: Cytotoxicity against human MGC-803 cells assessed as cell growth inhibition. Type of assay: functional, cell-based.
For a further assay, the system named is PANC-1. Kind of assay: Cytotoxicity against human PANC-1 cells assessed as cell growth inhibition measured after 72 hrs XTT assay. The format is functional, cell-based. Particulars: PANC-1, 72 h.
The subject of the next assay is PC-3. Kind of assay: Cytotoxicity against human PC-3 cells assessed as cell growth inhibition measured after 72 hrs XTT assay. Type of assay: functional, cell-based. Particulars: PC-3, 72 h.
The nature of assay [7]: Phototoxicity against rat AY-27 cells assessed as cell growth inhibition incubated for 2 hrs followed by diode laser illumination in presence of HAL by MTT assay relative to control. The format is functional. More on the design: scale not given: the % may be the effect or the level left.
The next assay addresses T1, Estrogen receptor (Homo sapiens, UniProt P03372).
T1 sequence (P03372 whole entry): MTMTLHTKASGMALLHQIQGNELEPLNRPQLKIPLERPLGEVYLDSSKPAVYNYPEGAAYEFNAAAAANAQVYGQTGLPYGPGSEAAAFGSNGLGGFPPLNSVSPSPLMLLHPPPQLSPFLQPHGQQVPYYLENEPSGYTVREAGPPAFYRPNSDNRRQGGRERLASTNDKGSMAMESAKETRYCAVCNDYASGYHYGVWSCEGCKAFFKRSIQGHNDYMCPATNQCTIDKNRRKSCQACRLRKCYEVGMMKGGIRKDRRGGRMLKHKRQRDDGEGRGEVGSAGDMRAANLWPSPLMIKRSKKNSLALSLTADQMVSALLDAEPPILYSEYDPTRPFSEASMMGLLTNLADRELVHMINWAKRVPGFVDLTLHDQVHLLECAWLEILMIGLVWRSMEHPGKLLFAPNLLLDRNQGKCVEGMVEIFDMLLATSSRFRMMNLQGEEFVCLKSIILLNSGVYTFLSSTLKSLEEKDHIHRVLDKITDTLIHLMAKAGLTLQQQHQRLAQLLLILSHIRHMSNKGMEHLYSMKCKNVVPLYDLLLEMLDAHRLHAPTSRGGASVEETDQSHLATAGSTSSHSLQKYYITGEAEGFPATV
The experiment in a line: Inhibition of human recombinant ERalpha expressed in baculovirus expression system measured after 20 mins by fluorescent polarisation Assay.

In another assay the test system is MCF7. Kind of assay: Cytotoxicity against human MCF7 cells assessed as cell growth inhibition by MTT assay. The format is functional, cell-based.
A further assay addresses Estrogen receptor beta (Homo sapiens, UniProt Q92731). Kind of assay: Inhibition of human recombinant ERbeta expressed in baculovirus expression system measured after 20 mins by fluorescent polarisation Assay.
Another assay relates to MDA-MB-468. The experiment in a line: Phototoxicity against human MDA-MB-468 cells assessed as cell growth inhibition incubated for 24 hrs followed by LED illumination by MTT assay. The format is functional, cell-based. To be noted: MDA-MB-468, light or radiation study.

Estrogen receptor beta, sequence (Q92731 whole entry): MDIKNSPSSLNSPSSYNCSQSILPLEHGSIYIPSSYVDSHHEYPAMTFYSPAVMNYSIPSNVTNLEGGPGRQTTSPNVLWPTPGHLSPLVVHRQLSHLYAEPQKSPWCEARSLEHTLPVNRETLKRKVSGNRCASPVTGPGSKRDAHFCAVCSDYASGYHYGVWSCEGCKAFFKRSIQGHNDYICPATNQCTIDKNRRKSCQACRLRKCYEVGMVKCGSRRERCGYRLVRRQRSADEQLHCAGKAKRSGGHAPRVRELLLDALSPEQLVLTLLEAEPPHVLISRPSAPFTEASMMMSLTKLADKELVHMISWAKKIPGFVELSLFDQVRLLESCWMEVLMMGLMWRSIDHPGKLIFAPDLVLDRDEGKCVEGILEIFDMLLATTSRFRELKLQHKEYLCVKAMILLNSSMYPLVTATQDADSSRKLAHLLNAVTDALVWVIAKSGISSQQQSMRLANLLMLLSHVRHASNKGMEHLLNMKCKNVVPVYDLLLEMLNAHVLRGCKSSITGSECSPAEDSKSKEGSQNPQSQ

On to `COc1ccc(/C=C\c2cc(OC)c(OC)c(OC)c2)cc1OC(=O)C1CC(C)(C)N(O)C1(C)C` (stereo not drawn), for which the figures for the 50% inhibitory concentration (IC50) with A549 [1] and in the assay with HepG2 [2] were 42 nM and 1830 nM, respectively.
Regarding `COc1ccc(/C=C\c2cc(OC)c(OC)c(OC)c2)cc1OC(=O)Cn1cc(F)c(=O)[nH]c1=O`, the IC50 (commonly the point on the concentration scale where inhibition reaches its midpoint) was 31 nM with HeLa; 22.8 nM with HepG2 [3]; less than 0.3 nM in the assay on A549 [4]; 400 nM in the assay on MDA-MB-231; less than 0.3 nM in the assay with MGC-803 [6]. For the same molecule, the inhibition in vivo at 50 mg/kg in the assay on MGC-803 [5] was 75%.
In the case of `COc1ccc(/C=C\c2cc(OC)c(OC)c(OC)c2)cc1OC(=O)CCn1cc(F)c(=O)[nH]c1=O`, the half-inhibitory concentration (IC50) in the assay on HeLa is 30 nM; with HepG2 [3], 7330 nM; in the assay on A549 [4] it was less than 0.3 nM; in the assay on MDA-MB-231 it was 80600 nM; with MGC-803 [6], less than 0.3 nM.
On to `CC[C@H](C)[C@H](NC(=O)[C@@H](N)CC(C)C)C(=O)N[C@@H](Cc1ccc(O)cc1)C(=O)N1CCC[C@H]1C(=O)N[C@@H](CCCNC(=N)N)C(=O)N[C@@H](CCCNC(=N)N)C(=O)NCCCCCC(NC(=O)[C@@H](CCCNC(=N)N)NC(=O)[C@@H](CCCNC(=N)N)NC(=O)[C@@H]1CCCN1C(=O)[C@H](Cc1ccc(O)cc1)NC(=O)[C@@H](NC(=O)[C@@H](N)CC(C)C)[C@@H](C)CC)C(=O)NC(CCCCNC(=O)C(CCCCNC(=O)[C@H](CCCNC(=N)N)NC(=O)[C@H](CCCNC(=N)N)NC(=O)[C@@H]1CCCN1C(=O)[C@H](Cc1ccc(O)cc1)NC(=O)[C@@H](NC(=O)[C@@H](N)CC(C)C)[C@@H](C)CC)NC(=O)[C@H](CCCNC(=N)N)NC(=O)[C@H](CCCNC(=N)N)NC(=O)[C@@H]1CCCN1C(=O)[C@H](Cc1ccc(O)cc1)NC(=O)[C@@H](NC(=O)[C@@H](N)CC(C)C)[C@@H](C)CC)C(=O)NCCC(=O)NC(CCCCNC(=O)CCOCCOCCNC(=O)CCCCC(=O)Oc1cc(/C=C\c2cc(OC)c(OC)c(OC)c2)ccc1OC)C(N)=O` (stereo partly drawn), for which the IC50 in the assay with PANC-1 is 500 nM; with PC-3, 850 nM.
Turning to `COc1ccc(/C=C\c2cc(OC)c(OC)c(OC)c2)cc1OC(=O)C1=CC(C)(C)N(O)C1(C)C`, the IC50 in the assay on A549 [1] came to 160 nM; in the assay on HepG2 [2] it was 3270 nM.
Taken in the same sequence, the figures for `COc1ccc(/C=C\c2cc(OC)c(OC)c(OC)c2)cc1OC(=O)C1CC(C)(C)N(O)C(C)(C)C1` were 170 nM and 11200 nM.
For the molecule `CCN(CC)c1ccc2c(-c3ccccc3C(=O)OCC3CCN(/C=C/C(=O)Oc4cc(/C=C\c5cc(OC)c(OC)c(OC)c5)ccc4OC)CC3)c3ccc(=[N+](CC)CC)cc-3oc2c1.[Cl-]`, in assay [7], the Activity is 100%.
Regarding `COc1ccc(/C=C\c2cc(OC)c(OC)c(OC)c2)cc1OC(=O)N(C)CCOc1ccc(C(=C2CCC(C)CC2)c2ccc(O)cc2)cc1` (stereo not drawn), the IC50 on Estrogen receptor worked out at 15 nM; in the assay on MCF7 it was 5.7 nM; at Estrogen receptor beta it was 115 nM.
Consider `COc1ccc(/C=C\c2cc(OC)c(OC)c(OC)c2)cc1OC(=O)C1=CC(C)(C)N(O)C(C)(C)C1`, for which the results for the half-inhibitory concentration (IC50) with A549 [1] and in the assay on HepG2 [2] were 150 nM and 3580 nM, respectively.
Take `COc1ccc(/C=C\c2cc(OC)c(OC)c(OC)c2)cc1O` [COMBRETASTATIN A4]: the IC50 worked out at 400 nM in the assay with HeLa; 16 nM in the assay with MDA-MB-468; 12.8 nM with HepG2 [3]; 35 nM with A549 [1]; 2.54 nM with A549 [4]; 3.3 nM in the assay on MDA-MB-231. Further, the values for the IC50 in the assay on HepG2 [2] and with MGC-803 [6] were 2390 nM and 20.6 nM, respectively.
For the molecule `O=c1[nH]cc(F)c(=O)[nH]1` [FLUOROURACIL], the results for the IC50 in the assay with HeLa, in the assay with A549 [4] and in the assay with MDA-MB-231 were 113 nM, 34900 nM and 97000 nM, respectively.
`CCc1c2c(nc3ccc(OC(=O)N4CCC(N5CCCCC5)CC4)cc13)-c1cc3c(c(=O)n1C2)COC(=O)[C@]3(O)CC` [IRINOTECAN]: the half-inhibitory concentration (IC50) with A549 [1] came to 2000 nM; in the assay with HepG2 [2], 34100 nM.
